{"source": "patent US7884081B2", "about": "“Methods of modulating tubulin deacetylast activity” (The J. David Gladstone Institutes, priority 2002, dated 2011)", "key": {"SIRT3": {"biological_target": "SIRT3 (Homo sapiens, UniProt Q9NTG7)", "sequence (Q9NTG7 whole entry)": "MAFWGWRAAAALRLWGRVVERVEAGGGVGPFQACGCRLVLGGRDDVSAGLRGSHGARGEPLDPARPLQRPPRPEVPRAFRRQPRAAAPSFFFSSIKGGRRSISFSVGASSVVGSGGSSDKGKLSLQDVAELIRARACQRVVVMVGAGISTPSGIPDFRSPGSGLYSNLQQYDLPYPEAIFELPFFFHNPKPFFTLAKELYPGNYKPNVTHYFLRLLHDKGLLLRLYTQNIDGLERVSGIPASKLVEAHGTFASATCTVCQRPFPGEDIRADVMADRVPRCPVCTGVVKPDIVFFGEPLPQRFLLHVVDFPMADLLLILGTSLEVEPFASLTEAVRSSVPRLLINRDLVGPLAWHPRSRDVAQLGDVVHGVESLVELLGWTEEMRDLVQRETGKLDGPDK", "experiment": "In vitro HDAC activity assay with recombinant protein (ribavirin)", "assay_type": "biochemical", "protocol": "(§1) Inhibitory activity of ribavirin against SIRT2 and SIRT3 proteins was tested using recombinant SIRT2 proteins and an in vitro assay. Ribavirin was incubated with recombinant protein only in buffer for 10 minutes; then NAD and substrate were added to start the reaction. Reactions were incubated for 2 hours at room temperature. Reactions were stopped by adding 25 μL stop buffer (0.1M HC1, 0.16M acetic acid) and vortexing briefly. Ethyl acetate extraction isolated any liberated acetyl groups. Ethyl acetate (0.5 ml) was added, mixture was vortexed for 15 seconds and spun at 14,000 rpm for 5 minutes. The upper phase (0.4 ml) was added to 5 mL scintillation fluid (Econofluor-2; Packard) and counted."}, "SIRT2 [1]": {"biological_target": "T1, SIRT2 (Homo sapiens, UniProt Q8IXJ6)", "T1 sequence (Q8IXJ6 1-389)": "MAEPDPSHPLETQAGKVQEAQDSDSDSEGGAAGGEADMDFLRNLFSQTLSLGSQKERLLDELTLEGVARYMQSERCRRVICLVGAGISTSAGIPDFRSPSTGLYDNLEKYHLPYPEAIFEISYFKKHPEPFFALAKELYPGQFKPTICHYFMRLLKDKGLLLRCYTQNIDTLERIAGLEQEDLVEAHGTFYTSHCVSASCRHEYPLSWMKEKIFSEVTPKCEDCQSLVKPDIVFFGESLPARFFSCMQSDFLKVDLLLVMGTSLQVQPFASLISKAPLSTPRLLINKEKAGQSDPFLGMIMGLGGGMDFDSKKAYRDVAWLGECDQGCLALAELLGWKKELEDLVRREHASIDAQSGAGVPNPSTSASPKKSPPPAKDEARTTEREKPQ", "experiment": "In vitro HDAC activity assay with recombinant protein (ribavirin)", "assay_type": "biochemical", "design": "6xHis; factor Xa protease cleavage site; made in house; host or cells: E. coli DH5αFIQ", "protocol": "as §1"}, "[2]": {"system": "GFP-MIZ-1 sub-cellular distribution in HeLa cells", "experiment": "GFP-MIZ-1 sub-cellular localization by immunofluorescence in transfected HeLa cells", "assay_type": "cell-based", "conditions": "for percentage of cells with GFP-MIZ-1 localized in the cytoplasm: TSA treatment", "method": "HeLa cells grown on coverslips were transfected with LipofectAMINE reagent (Gibco Invitrogen Corp., Carlsbad, Calif.) for 8 hours according to manufacturer's protocol or by calcium phosphate DNA precipitation method. Transfected cells were incubated for 12 hours with 400 nM TSA (WACO BioProducts, Richmond, Va.) 24 hours after transfection. Cells were washed twice for 10 minutes in PBS and fixed for 10 minutes in 4% formaldehyde (EMS, Ft. Washington, Pa.) followed by permeabilization for 10 minutes in 0.5% Triton-X-100 in PBS. Following three washes for 10 minutes in PBS, cells were incubated for 10 minutes in 10% BSA, and incubated for 1 hour with anti-acetylated tubulin 6-11B-1, anti-tubulin B-5-1-2 diluted 1:1000, or anti-FLAG M2 diluted 1:500 in 0.1% TWEEN-20™ non-ionic detergent. Cells were washed three times in 0.1% TWEEN-20™ non-ionic detergent, followed by incubation with goat anti-mouse IgG (Fc specific) TRITC-conjugated antibody (Sigma, St. Louis) diluted 1:100 in 0.1% TWEEN-20™ non-ionic detergent. Following incubation cells were incubated for 5 minutes in 20 mg/ml 4′,6′-diamidino-2-phenylindole hydrochloride (DAPI) washed three times in phosphate-buffered saline (PBS), once in ddH2O, and mounted with Gel Mount (Biomeda Corp., Foster City, Calif.). Slides were visualized on a Nikon E600 microscope system equipped with a SPOT 2 Digital Camera. Confocal images were acquired by laser-scanning confocal microscopy with an Olympus BX60 microscope equipped with a Radiance 2000 confocal setup (BioRad, Hercules, Calif.).\nTransfected cells were counted as either GFP-MIZ-1 localized completely nuclear or with partial cytoplasmic retention. Cell counts were derived from inspection of at least 150 transfected cells from six microscopic fields. […] Data set is representative of three independent experiments."}, "SIRT2 [3]": {"biological_target": "T1, SIRT2", "experiment": "Ex vivo tubulin deacetylation assay, SIRT2-FLAG with cellular lysate, western blot for acetylated tubulin", "assay_type": "biochemical", "conditions": "1 mM NAD", "protocol": "Immunoprecipitations were resuspended in 100 μl SIRT deacetylase buffer containing 50 μg total cellular lysate from untransfected HEK 293T cells and 1 mM NAD. Reactions containing 400 nM TSA or 5 mM nicotinamide (Sigma, St. Louis, Mo.) were pre-incubated at room temperature with all components of the reaction in the absence of NAD for 10 minutes, Following the pre-incubation, the enzymatic reactions were started with the addition of NAD followed by incubation for 2 hours at room temperature with constant agitation. Reactions were stopped by the addition of 50 μl 6× SDS-polyacrylamide gel electrophoresis (PAGE) buffer. Beads were pelleted by centrifugation at 14,000 rpm for 10 minutes and 10 μl of each supernatant was separated on 10% SDS-PAGE gels and western blotted as described above.\nIn this assay, HEK 293T cells were transfected with SIRT2-FLAG followed by immunoprecipitation of the FLAG-tagged protein (FIG. 3A). The immunoprecipitated material was separated into two fractions. The first fraction was used to measure HDAC activity using the acetylated histone H4 peptide. […] The extent of acetylation/deacetylation of α-tubulin was determined by western blotting analysis using a specific antisera for acetylated α-tubulin. […]"}, "SIRT2 [4]": {"biological_target": "T1, SIRT2", "experiment": "Histone deacetylase assay, immunoprecipitated SIRT2-FLAG on [3H]acetylated histone H4 peptide", "assay_type": "biochemical", "protocol": "HEK 293T cells were transfected by calcium phosphate DNA precipitation method and lysed 48 hours post-transfection in low stringency lysis buffer (50 mM Tris-HCl, pH 7.5, 0.5 mM EDTA, 0.5% NP-40, 150 mM NaCl) in the presence of protease inhibitor cocktail (Complete, Roche Molecular Biochemicals, Indianapolis, Ind.). FLAG tagged proteins were immunoprecipitated with anti-FLAG M2 agarose affinity gel (Sigma, St. Louis, Mo.) and GFP-tagged proteins were immunoprecipitated with anti-GFP monoclonal antibody (Sigma, St. Louis, Mo.) in the presence of Protein G Sepharose (Amersham Pharmacia Biotech, Inc., Piscataway, N.J.) for 2 hours at 4° C. Immunoprecipitated material was washed 3 times in low stringency lysis buffer and one time in SIRT2 deacetylase buffer (50 mM Tris-HCl, pH 9.0, 4 mM MgCl2, and 0.2 mM dithiothreitol (DTT)).\nImmunoprecipitated material and recombinant SIRT2 were resuspended in 100 μL of SIRT2 deacetylase buffer containing NAD (Sigma, St. Louis, Mo.) and [^3H] acetylated histone H4 peptide (a.a. 1-23) (Emiliani et al., 1998). TSA (WACO BioProducts, Richmond, Va.) was resuspended in dimethyl sulfoxide (DMSO) was further diluted in DMSO and added to reactions to desired concentration. […] After centrifugation for 5 minutes, 400 μL of the ethyl acetate fraction was mixed with 5 ml scintillation fluid and counted."}, "α-tubulin": {"system": "α-tubulin", "conditions": "treatment of cells with TSA; cited from earlier work"}, "SIRT1 protein": {"system": "SIRT1 protein", "conditions": "cited from earlier work"}, "[5]": {"system": "acetylated tubulin in HeLa, 293T and HepG2 cells", "experiment": "Microtubule destabilizing drug treatment, western blot for acetylated tubulin", "assay_type": "cell-based", "conditions": "10 μg/mL colchicine or 1 μg/mL nocodazole for 6 hours", "from_the_text": "Lysates were equilibrated by total protein concentration and were separated on 10% SDS-PAGE gels and western blotted as described above.\nCells were harvested and lysates separated by SDS-PAGE and western blotting using specific antisera for acetylated tubulin and tubulin."}, "recombinant Hst2p": {"biological_target": "recombinant Hst2p (Saccharomyces cerevisiae, UniProt P53686)", "sequence (P53686 whole entry)": "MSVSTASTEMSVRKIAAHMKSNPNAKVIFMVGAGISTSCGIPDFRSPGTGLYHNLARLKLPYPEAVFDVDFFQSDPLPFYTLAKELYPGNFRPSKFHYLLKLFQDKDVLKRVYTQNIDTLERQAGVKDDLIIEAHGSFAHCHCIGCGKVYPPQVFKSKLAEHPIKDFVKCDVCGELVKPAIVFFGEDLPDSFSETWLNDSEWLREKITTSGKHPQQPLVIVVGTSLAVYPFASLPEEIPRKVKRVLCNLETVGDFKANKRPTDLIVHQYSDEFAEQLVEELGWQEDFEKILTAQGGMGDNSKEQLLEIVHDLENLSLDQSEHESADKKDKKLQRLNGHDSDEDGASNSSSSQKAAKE", "experiment": "Tubulin peptide deacetylation kinetics (HPLC)", "assay_type": "biochemical, yeast", "conditions": "500 μM NAD, 37° C.", "protocol": "Increasing concentrations of tubulin peptide (20-900 μM), and 800 μM NAD were reacted in the presence of 0.8 to 1 μM recombinant SIRT2 in 50 mM Tris, pH 7.5, 1 mM DTT, and 10% methanol at 37° C. For Hst2p reactions, tubulin peptides and 500 μM NAD were reacted in the presence of 9 to 19 μM recombinant Hst2p under the same conditions. Reactions were quenched with trifluoroacetic acid (TFA) to a final concentration of 1%. Time points were chosen such that initial velocity conditions were observed. Samples were injected into the high performance liquid chromatography (HPLC) with a Beckman C18 analytical column. Upon injection, the system was run isocratically with solvent A (0.05% TFA in H2O), followed by a gradient of 0-10% solvent B (0.02% TFA in CH3CN) for 4 minutes, and followed by a gradient of 10-23% solvent B for 23 minutes. Deacetylated and acetylated peptides eluted at 16% and 18% CH3CN, respectively. Elution of substrates and products were monitored by measuring the absorbance at 214 nm, and corresponding peaks were integrated using the Beckman System Gold Nouveau software. The amount of product was quantified by calculating the percentage of the deacetylated tubulin peptide from the total tubulin peptide based upon their integration values. […]"}, "SIRT2 [6]": {"biological_target": "T1, SIRT2", "experiment": "Tubulin peptide deacetylation kinetics (HPLC)", "assay_type": "biochemical", "design": "6xHis; factor Xa protease cleavage site; made in house; host or cells: E. coli DH5αFIQ", "conditions": "SIRT2, 800 μM NAD, 37° C."}}, "note": "No end group written: not given here.", "data": [{"molecule": "NC(=O)c1ncn([C@@H]2O[C@H](CO)[C@@H](O)[C@H]2O)n1", "note": "[Ribavirin, 1-β-D-ribofuranosyl-1H-1,2,4-triazole-3-carboxamide]", "values": [{"measurement": "effect on SIRT3 in vitro HDAC activity", "setting": "SIRT3", "value": "no effect"}, {"measurement": "inhibition at 25 µM", "setting": "SIRT2 [1]", "value": "~50", "unit": "%"}]}, {"molecule": "CC(/C=C/C(=O)NO)=C\\[C@@H](C)C(=O)c1ccc(N(C)C)cc1", "note": "[TSA, Trichostatin A]", "values": [{"measurement": "localization of GFP-MIZ-1", "setting": "[2]; HeLa cells treated with TSA (400 nM, 12 hours)", "value": "distinct shift in localization of GFP-MIZ-1 from the nucleus to the cytoplasm"}, {"measurement": "percentage of cells with GFP-MIZ-1 localized in the cytoplasm", "setting": "[2]; co-transfected with FLAG empty vector", "value": 36.9, "unit": "%"}, {"measurement": "percentage of cells with GFP-MIZ-1 localized in the cytoplasm", "setting": "[2]; co-transfected with SIRT2-FLAG wild-type", "value": 11.2, "unit": "%"}, {"measurement": "percentage of cells with GFP-MIZ-1 localized in the cytoplasm", "setting": "[2]; co-transfected with catalytically inactive SIRT2-FLAG N168A", "value": 35.3, "unit": "%"}, {"measurement": "tubulin deacetylation by SIRT2", "setting": "SIRT2 [3]; 400 nM TSA", "value": "had no effect"}, {"measurement": "HDAC activity of SIRT2", "setting": "SIRT2 [4]; immunoprecipitated SIRT2-FLAG, 1 mM NAD, increasing concentrations of TSA (100-1600 nM)", "value": "No change"}, {"measurement": "acetylation of α-tubulin in cells", "setting": "α-tubulin", "value": "induces hyperacetylation"}]}, {"molecule": "NC(=O)c1cccnc1", "note": "[nicotinamide]", "values": [{"measurement": "inhibition of SIRT1", "setting": "SIRT1 protein", "value": "effective inhibitor"}, {"measurement": "tubulin deacetylation by SIRT2", "setting": "SIRT2 [3]; 5 mM nicotinamide", "value": "completely inhibited"}, {"measurement": "HDAC activity of SIRT2", "setting": "SIRT2 [4]; increasing concentrations of nicotinamide, 156 μM to 20 mM", "value": "dose dependent decrease"}]}, {"molecule": "COC(=O)Nc1nc2ccc(C(=O)c3cccs3)cc2[nH]1", "note": "[nocodazole]", "values": [{"measurement": "acetylation state of tubulin", "setting": "[5]", "value": "tubulin deacetylation"}]}, {"molecule": "acetylated tubulin peptide: 9-amino acid synthetic α-tubulin peptide (MPSD(AcK)TIGG), acetylated on lysine-40 (MPSDK(Ac)TIGG)", "values": [{"measurement": "V/K", "setting": "recombinant Hst2p", "value": 14.9, "unit": "M⁻¹ s⁻¹"}, {"measurement": "kcat", "setting": "recombinant Hst2p", "value": "0.00254 ± 0.0003", "unit": "s⁻¹"}, {"measurement": "V/K", "setting": "SIRT2 [6]", "value": "894 ± 100", "unit": "M⁻¹ s⁻¹"}, {"measurement": "kcat", "setting": "SIRT2 [6]", "value": "0.144 ± 0.005", "unit": "s⁻¹"}]}]}
